Measured values: article PMC5218480 (PLoS ONE, 2017)

System: MV-4-11 cells
Assay: Gene expression microarray analysis (Affymetrix PrimeView) and GSEA
Assay type: cell-based, human
Design: RFU PODN (11730768_x_at) / Fold change /veh PODN (11730768_x_at) / RFU LINC00158 (11744669_a_at) / Fold change /veh LINC00158 (11744669_a_at) / RFU DUSP10 (11751237_a_at) / Fold change /veh DUSP10 (11751237_a_at) / RFU ID3 (11757404_x_at) / Fold change /veh ID3 (11757404_x_at) / RFU PLEKHG5 (11737974_s_at) / Fold change /veh PLEKHG5 (11737974_s_at) / RFU LRRC4B (11730491_at) / Fold change /veh LRRC4B (11730491_at) / RFU GIMAP4 (11747438_a_at) / Fold change /veh GIMAP4 (11747438_a_at) / RFU KRT8 (11758183_x_at) / Fold change /veh KRT8 (11758183_x_at) / RFU CNN1 (11734310_a_at) / Fold change /veh CNN1 (11734310_a_at) / RFU VPS37D (11726825_at) / Fold change /veh VPS37D (11726825_at) / RFU C10orf10 (11716522_x_at) / Fold change /veh C10orf10 (11716522_x_at) / RFU KIR2DL2 /// KIR2DL4 /// KIR2DL5A /// KIR2DL5B /// KIR2DS1 /// KIR2DS2 /// KIR2DS3 /// KIR2DS4 /// KIR3DL3 /// KIR3DL3 /// KIR3DS1 (11738374_at) / Fold change /veh KIR2DL2 /// KIR2DL4 /// KIR2DL5A /// KIR2DL5B /// KIR2DS1 /// KIR2DS2 /// KIR2DS3 /// KIR2DS4 /// KIR3DL3 /// KIR3DL3 /// KIR3DS1 (11738374_at) / RFU C1QL1 (11718748_at) / Fold change /veh C1QL1 (11718748_at) / RFU TMPRSS4 (11747572_a_at) / Fold change /veh TMPRSS4 (11747572_a_at) / RFU HAMP (11756126_x_at) / Fold change /veh HAMP (11756126_x_at) / RFU RNFT2 (11725882_a_at) / Fold change /veh RNFT2 (11725882_a_at) / RFU NR4A2 (11747474_a_at) / Fold change /veh NR4A2 (11747474_a_at) / RFU ABCC12 (11746883_a_at) / Fold change /veh ABCC12 (11746883_a_at) / RFU TMEM136 (11760407_x_at) / Fold change /veh TMEM136 (11760407_x_at) / RFU CLDN22 /// WWC2 (11732394_at) / Fold change /veh CLDN22 /// WWC2 (11732394_at) / RFU HLA-DPB1 (11760878_x_at) / Fold change /veh HLA-DPB1 (11760878_x_at) / RFU SPINT1 (11716480_a_at) / Fold change /veh SPINT1 (11716480_a_at) / RFU GAP43 (11754022_s_at) / Fold change /veh GAP43 (11754022_s_at) / RFU A4GNT (11735810_at) / Fold change /veh A4GNT (11735810_at) / RFU PRB3 (11715151_x_at) / Fold change /veh PRB3 (11715151_x_at) / RFU TUBB4B (11761932_at) / Fold change /veh TUBB4B (11761932_at) / RFU CAPN14 (11732068_a_at) / Fold change /veh CAPN14 (11732068_a_at) / RFU TMCC2 (11721928_a_at) / Fold change /veh TMCC2 (11721928_a_at) / RFU IRGQ (11745062_a_at) / Fold change /veh IRGQ (11745062_a_at) / RFU FAM174B (11720279_a_at) / Fold change /veh FAM174B (11720279_a_at) / RFU TMPRSS4 (11748680_a_at) / Fold change /veh TMPRSS4 (11748680_a_at) / RFU FAM212B (11763350_a_at) / Fold change /veh FAM212B (11763350_a_at) / RFU PLEKHG5 (11743358_a_at) / Fold change /veh PLEKHG5 (11743358_a_at) / RFU ZSCAN30 (11745921_a_at) / Fold change /veh ZSCAN30 (11745921_a_at) / RFU CMKLR1 (11741424_a_at) / Fold change /veh CMKLR1 (11741424_a_at) / RFU LOC101060620 /// MAPK8IP1 (11723275_at) / Fold change /veh LOC101060620 /// MAPK8IP1 (11723275_at) / RFU SPTSSB (11747773_x_at) / Fold change /veh SPTSSB (11747773_x_at) / RFU PRSS12 (11739890_at) / Fold change /veh PRSS12 (11739890_at) / RFU BIN1 (11741810_x_at) / Fold change /veh BIN1 (11741810_x_at) / RFU WNT11 (11732464_a_at) / Fold change /veh WNT11 (11732464_a_at) / RFU C10orf10 (11716521_a_at) / Fold change /veh C10orf10 (11716521_a_at) / RFU C5orf56 (11738089_at) / Fold change /veh C5orf56 (11738089_at) / RFU CYB561 (11721691_x_at) / Fold change /veh CYB561 (11721691_x_at) / RFU ANKRD19P (11752326_a_at) / Fold change /veh ANKRD19P (11752326_a_at) / RFU OR2T12 /// OR2T33 /// OR2T8 (11738714_s_at) / Fold change /veh OR2T12 /// OR2T33 /// OR2T8 (11738714_s_at) / RFU VCAN (11748164_a_at) / Fold change /veh VCAN (11748164_a_at) / RFU JSRP1 (11732532_at) / Fold change /veh JSRP1 (11732532_at) / RFU KRTAP10-11 (11738290_x_at) / Fold change /veh KRTAP10-11 (11738290_x_at) / RFU MYO3A (11730013_a_at) / Fold change /veh MYO3A (11730013_a_at) / RFU EBF3 (11725865_a_at) / Fold change /veh EBF3 (11725865_a_at) / RFU CAMK2N1 (11719241_x_at) / Fold change /veh CAMK2N1 (11719241_x_at) / RFU C5orf56 (11738088_a_at) / Fold change /veh C5orf56 (11738088_a_at) / RFU OLFML3 (11715873_a_at) / Fold change /veh OLFML3 (11715873_a_at) / RFU LOC100653217 /// NTM (11731650_a_at) / Fold change /veh LOC100653217 /// NTM (11731650_a_at) / RFU MAPK11 (11762145_a_at) / Fold change /veh MAPK11 (11762145_a_at) / RFU FIZ1 (11724087_x_at) / Fold change /veh FIZ1 (11724087_x_at) / RFU OASL (11726364_x_at) / Fold change /veh OASL (11726364_x_at) / RFU SOX15 (11748057_x_at) / Fold change /veh SOX15 (11748057_x_at) / RFU CD79A (11719716_a_at) / Fold change /veh CD79A (11719716_a_at) / RFU HIST1H1D (11736915_at) / Fold change /veh HIST1H1D (11736915_at) / RFU CASKIN2 (11723855_a_at) / Fold change /veh CASKIN2 (11723855_a_at) / RFU LOC730098 (11760151_x_at) / Fold change /veh LOC730098 (11760151_x_at) / RFU OR4N2 (11742367_at) / Fold change /veh OR4N2 (11742367_at) / RFU PRRT2 (11749266_a_at) / Fold change /veh PRRT2 (11749266_a_at) / RFU SNX32 (11753110_a_at) / Fold change /veh SNX32 (11753110_a_at) / RFU CDHR5 (11726645_a_at) / Fold change /veh CDHR5 (11726645_a_at) / RFU RCAN1 (11760418_a_at) / Fold change /veh RCAN1 (11760418_a_at) / RFU FAM167A (11723789_a_at) / Fold change /veh FAM167A (11723789_a_at) / RFU FAM26E (11764081_at) / Fold change /veh FAM26E (11764081_at) / RFU ISYNA1 (11749810_s_at) / Fold change /veh ISYNA1 (11749810_s_at) / RFU ACY1 (11761880_at) / Fold change /veh ACY1 (11761880_at) / RFU 11764098_at / Fold change /veh 11764098_at / RFU SAMD14 (11745864_x_at) / Fold change /veh SAMD14 (11745864_x_at) / RFU NPB (11741838_a_at) / Fold change /veh NPB (11741838_a_at) / RFU TMPRSS6 (11731388_a_at) / Fold change /veh TMPRSS6 (11731388_a_at) / RFU KRTAP10-2 (11738614_at) / Fold change /veh KRTAP10-2 (11738614_at) / RFU ARHGAP8 /// PRR5-ARHGAP8 (11727945_x_at) / Fold change /veh ARHGAP8 /// PRR5-ARHGAP8 (11727945_x_at) / RFU KRTAP5-7 /// NADSYN1 (11734609_at) / Fold change /veh KRTAP5-7 /// NADSYN1 (11734609_at) / RFU RASL12 (11751679_a_at) / Fold change /veh RASL12 (11751679_a_at) / RFU CDKN2B (11736163_a_at) / Fold change /veh CDKN2B (11736163_a_at) / RFU PRF1 (11729649_at) / Fold change /veh PRF1 (11729649_at) / RFU, ZNF638 /// ZNF638-IT1 / Fold change vs veh, ZNF638 /// ZNF638-IT1 / RFU, PANK3 / Fold change vs veh, PANK3 / RFU, SH3YL1 / Fold change vs veh, SH3YL1 / RFU, ZEB2 / Fold change vs veh, ZEB2 / RFU, NRIP1 / Fold change vs veh, NRIP1 / RFU, PTTG1IP / Fold change vs veh, PTTG1IP / RFU, CAPN2 / Fold change vs veh, CAPN2 / RFU, MED14 / Fold change vs veh, MED14 / RFU, SNORA58 / Fold change vs veh, SNORA58 / RFU, C1orf63 / Fold change vs veh, C1orf63 / RFU, LRRFIP1 / Fold change vs veh, LRRFIP1 / RFU, NDUFAF7 / Fold change vs veh, NDUFAF7 / RFU, SLC12A2 / Fold change vs veh, SLC12A2 / RFU, IBTK / Fold change vs veh, IBTK / RFU, ESF1 / Fold change vs veh, ESF1 / Fold change vs veh, TMEM50B / RFU, TAOK1 / Fold change vs veh, TAOK1 / RFU, ACBD3 / Fold change vs veh, ACBD3 / RFU, TMA16 / Fold change vs veh, TMA16 / RFU, RWDD3 / Fold change vs veh, RWDD3 / RFU, BCAT1 / Fold change vs veh, BCAT1 / RFU, EDEM3 / Fold change vs veh, EDEM3 / RFU, TMEM33 / Fold change vs veh, TMEM33 / RFU, WDR75 / Fold change vs veh, WDR75 / RFU, AHCTF1 / Fold change vs veh, AHCTF1 / RFU, TFRC / Fold change vs veh, TFRC / RFU, ZDHHC17 / Fold change vs veh, ZDHHC17 / RFU, NOM1 / Fold change vs veh, NOM1 / RFU, ARL8B / Fold change vs veh, ARL8B / RFU, ZBTB11 / Fold change vs veh, ZBTB11 / RFU, TAMM41 / Fold change vs veh, TAMM41 / RFU, KIAA1704 /// LOC100996395 / Fold change vs veh, KIAA1704 /// LOC100996395 / RFU, ING1 / Fold change vs veh, ING1 / RFU, TRMT61B / Fold change vs veh, TRMT61B / RFU, FUBP3 / Fold change vs veh, FUBP3 / RFU, TP53 / Fold change vs veh, TP53 / RFU, TNKS2 / Fold change vs veh, TNKS2 / RFU, ZFP14 / Fold change vs veh, ZFP14 / RFU, ACTR2 / Fold change vs veh, ACTR2 / RFU, PPP3R1 / Fold change vs veh, PPP3R1 / RFU, PIK3R1 / Fold change vs veh, PIK3R1 / RFU, HNRNPA1 / Fold change vs veh, HNRNPA1 / RFU, RNF170 / Fold change vs veh, RNF170 / RFU, ZNF28 / Fold change vs veh, ZNF28 / RFU, RNGTT / Fold change vs veh, RNGTT / RFU, OGT / Fold change vs veh, OGT / RFU, BRD1 / Fold change vs veh, BRD1 / RFU, MARS / Fold change vs veh, MARS / RFU, ZNF655 / Fold change vs veh, ZNF655 / RFU, FAHD1 / Fold change vs veh, FAHD1 / RFU, BDP1 / Fold change vs veh, BDP1 / RFU, LRRCC1 / Fold change vs veh, LRRCC1 / RFU, ARID1A / Fold change vs veh, ARID1A / RFU, ZNF146 / Fold change vs veh, ZNF146 / RFU, ZNF330 / Fold change vs veh, ZNF330 / RFU, GPN3 / Fold change vs veh, GPN3 / RFU, C9orf123 / Fold change vs veh, C9orf123 / RFU, N4BP2L2 / Fold change vs veh, N4BP2L2 / RFU, ARFIP1 / Fold change vs veh, ARFIP1 / RFU, FAM179B / Fold change vs veh, FAM179B / RFU, BCL10 / Fold change vs veh, BCL10 / RFU, UHRF1BP1L / Fold change vs veh, UHRF1BP1L / RFU, BET1 / Fold change vs veh, BET1 / RFU, CNOT2 / Fold change vs veh, CNOT2 / RFU, ZNF268 / Fold change vs veh, ZNF268 / Fold change vs veh, ZNF507 / RFU, DGCR2 / Fold change vs veh, DGCR2 / RFU, WDSUB1 / Fold change vs veh, WDSUB1 / Fold change vs veh, HSP90B1 /// MIR3652 / RFU, ADSS / Fold change vs veh, ADSS / RFU, GK / Fold change vs veh, GK / RFU, ZNF148 / Fold change vs veh, ZNF148 / RFU, TAF9 / Fold change vs veh, TAF9 / RFU, SLC1A5 / Fold change vs veh, SLC1A5 / RFU, SLMO2 / Fold change vs veh, SLMO2 / RFU, ABCC4 / Fold change vs veh, ABCC4 / RFU, LOC101060439 /// RAP1B / Fold change vs veh, LOC101060439 /// RAP1B / RFU, RFX7 / Fold change vs veh, RFX7 / RFU, GTPBP10 / Fold change vs veh, GTPBP10 / RFU, CNEP1R1 / Fold change vs veh, CNEP1R1 / RFU, BIVM-ERCC5 /// ERCC5 / Fold change vs veh, BIVM-ERCC5 /// ERCC5 / RFU, ILF3 / Fold change vs veh, ILF3 / RFU 11762660_at / Fold change /veh 11762660_at / RFU VCAN (11757783_s_at) / Fold change /veh VCAN (11757783_s_at) / RFU DDX43 (11728927_at) / Fold change /veh DDX43 (11728927_at) / RFU KRT8 (11758188_x_at) / Fold change /veh KRT8 (11758188_x_at) / RFU NKD1 (11759106_at) / Fold change /veh NKD1 (11759106_at) / RFU SRD5A1 (11742802_a_at) / Fold change /veh SRD5A1 (11742802_a_at) / RFU TPSAB1 /// TPSB2 (11721975_s_at) / Fold change /veh TPSAB1 /// TPSB2 (11721975_s_at) / RFU GSTM3 (11746129_a_at) / Fold change /veh GSTM3 (11746129_a_at) / RFU IL23R (11737362_x_at) / Fold change /veh IL23R (11737362_x_at) / RFU TMEM51 (11727254_a_at) / Fold change /veh TMEM51 (11727254_a_at) / RFU PIWIL2 (11732686_x_at) / Fold change /veh PIWIL2 (11732686_x_at) / RFU ORM1 (11744905_x_at) / Fold change /veh ORM1 (11744905_x_at) / RFU CCDC152 (11743942_at) / Fold change /veh CCDC152 (11743942_at) / RFU ECM1 (11717891_a_at) / Fold change /veh ECM1 (11717891_a_at) / RFU IL23R (11748794_a_at) / Fold change /veh IL23R (11748794_a_at) / RFU TNFAIP8L3 (11732012_x_at) / Fold change /veh TNFAIP8L3 (11732012_x_at) / RFU MBOAT4 (11741988_at) / Fold change /veh MBOAT4 (11741988_at) / RFU 11764193_at / Fold change /veh 11764193_at / RFU TMEM53 (11763286_at) / Fold change /veh TMEM53 (11763286_at) / RFU MAGEB2 (11727129_at) / Fold change /veh MAGEB2 (11727129_at) / RFU TMEM200A (11744735_a_at) / Fold change /veh TMEM200A (11744735_a_at) / RFU CCDC152 (11751479_a_at) / Fold change /veh CCDC152 (11751479_a_at) / RFU FAM211A (11726209_a_at) / Fold change /veh FAM211A (11726209_a_at) / RFU RGS16 (11746705_a_at) / Fold change /veh RGS16 (11746705_a_at) / RFU VCAN (11755009_s_at) / Fold change /veh VCAN (11755009_s_at) / RFU RHOB (11743442_s_at) / Fold change /veh RHOB (11743442_s_at) / RFU RGS16 (11720943_a_at) / Fold change /veh RGS16 (11720943_a_at) / RFU RGS16 (11720944_at) / Fold change /veh RGS16 (11720944_at) / RFU, VPS4B / Fold change vs veh, VPS4B / RFU, CREB1 / Fold change vs veh, CREB1 / RFU, DNAJC13 / Fold change vs veh, DNAJC13 / RFU, GNAQ / Fold change vs veh, GNAQ / RFU, CDK5R1 / Fold change vs veh, CDK5R1 / RFU, ZRANB3 / Fold change vs veh, ZRANB3 / RFU, CUL4A / Fold change vs veh, CUL4A / RFU, CCNY / Fold change vs veh, CCNY / RFU, UFL1 / Fold change vs veh, UFL1 / RFU, COG3 / Fold change vs veh, COG3 / RFU, DIAPH2 / Fold change vs veh, DIAPH2 / RFU, SKA2 / Fold change vs veh, SKA2 / RFU, AFF3 / Fold change vs veh, AFF3 / RFU, LMF1 / Fold change vs veh, LMF1 / RFU, IPO11 / Fold change vs veh, IPO11 / RFU, DFFB / Fold change vs veh, DFFB / RFU, FOXP1 / Fold change vs veh, FOXP1 / RFU, CARD8 / Fold change vs veh, CARD8 / RFU, STRN3 / Fold change vs veh, STRN3 / RFU, ADK / Fold change vs veh, ADK / RFU, RASSF2 / Fold change vs veh, RASSF2 / RFU, WIPF1 / Fold change vs veh, WIPF1 / RFU, LARP1B / Fold change vs veh, LARP1B / RFU, RASA1 / Fold change vs veh, RASA1 / RFU, RB1 / Fold change vs veh, RB1 / RFU, PPFIA1 / Fold change vs veh, PPFIA1 / RFU, MAT2A / Fold change vs veh, MAT2A / RFU, CCT5 / Fold change vs veh, CCT5 / RFU, WDR92 / Fold change vs veh, WDR92 / RFU, CUX1 / Fold change vs veh, CUX1 / RFU, TTC7A / Fold change vs veh, TTC7A / RFU, TMEM135 / Fold change vs veh, TMEM135 / RFU, DEPTOR / Fold change vs veh, DEPTOR / RFU, CPM / Fold change vs veh, CPM / RFU, DNAJB6 / Fold change vs veh, DNAJB6 / RFU, CACNA2D3 / Fold change vs veh, CACNA2D3 / RFU, DTX4 / Fold change vs veh, DTX4 / RFU, TFCP2 / Fold change vs veh, TFCP2 / RFU, GMCL1 /// GMCL1P1 / Fold change vs veh, GMCL1 /// GMCL1P1 / RFU, AEBP2 / Fold change vs veh, AEBP2 / RFU, SNHG1 /// SNORD22 /// SNORD25 /// SNORD26 /// SNORD27 /// SNORD28 /// SNORD29 /// SNORD31 / Fold change vs veh, SNHG1 /// SNORD22 /// SNORD25 /// SNORD26 /// SNORD27 /// SNORD28 /// SNORD29 /// SNORD31 / Fold change (Aza/veh), C12orf56 (ProbeSet 11735607_a_at) / Fold change (ACY-1035/veh), C12orf56 (ProbeSet 11735607_a_at) / Fold change (Aza/veh), FGFR1OP (ProbeSet 11751329_s_at) / Fold change (ACY-1035/veh), FGFR1OP (ProbeSet 11751329_s_at) / Fold change (Aza/veh), VPS36 (ProbeSet 11739960_a_at) / Fold change (ACY-1035/veh), VPS36 (ProbeSet 11739960_a_at) / RFU SYPL1 (11715823_x_at) / Fold change /veh SYPL1 (11715823_x_at) / RFU IGFBP7 (11715501_s_at) / Fold change /veh IGFBP7 (11715501_s_at) / RFU REEP3 (11722064_at) / Fold change /veh REEP3 (11722064_at) / RFU IGLL1 (11728026_x_at) / Fold change /veh IGLL1 (11728026_x_at): dose or concentration left out as unconfirmed
Conditions: MV-4-11 cells, 48 hours

How did the “Fold change /veh ARHGAP8 /// PRR5-ARHGAP8 (11727945_x_at)” value turn out when Nc1ccc(-c2cccs2)cc1NC(=O)c1ccc2c(c1)cc(C1CC1)n2CCN1CCOCC1 [ACY-1035] was run?
The value was 1.04.
